Data from PubChem BioAssay (NCI).
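96-well plates; 48 h exposure; 5 concentrations. Endpoints by linear interpolation between flanking doses. Not reached: highest tested concentration assigned. GI50: concentration for 50% inhibition of growth. Definition used: TGI = concentration required for complete inhibition of growth.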

Key:
Test in all cases: inhibition of tumour cell growth, NCI panel, 48 h
HCT-116 colon = tested on: HCT-116 colon
SR leukemia = tested on: SR leukemia
786-0 renal = tested on: 786-0 renal
COLO 205 colon = tested on: COLO 205 colon
A549 NSCLC = tested on: A549 NSCLC
HS 578T breast = tested on: HS 578T breast
LOX IMVI melanoma = tested on: LOX IMVI melanoma
HOP-62 NSCLC = tested on: HOP-62 NSCLC
U251 CNS = tested on: U251 CNS
MDA-MB-435 = tested on: MDA-MB-435
UACC-62 melanoma = tested on: UACC-62 melanoma
A498 renal = tested on: A498 renal
OVCAR-8 ovarian = tested on: OVCAR-8 ovarian
T-47D breast = tested on: T-47D breast
NCI-H23 lung = tested on: NCI-H23 lung
OVCAR-5 ovarian = tested on: OVCAR-5 ovarian
HOP-92 NSCLC = tested on: HOP-92 NSCLC
ACHN renal = tested on: ACHN renal
NCI-H226 lung = tested on: NCI-H226 lung
MALME-3M melanoma = tested on: MALME-3M melanoma
HCT-15 colon = tested on: HCT-15 colon
HL-60(TB) leukemia = tested on: HL-60(TB) leukemia
SNB-19 CNS = tested on: SNB-19 CNS
CCRF-CEM leukemia = tested on: CCRF-CEM leukemia
OVCAR-4 ovarian = tested on: OVCAR-4 ovarian
HCC-2998 colon = tested on: HCC-2998 colon
KM12 colon = tested on: KM12 colon
SF-295 CNS = tested on: SF-295 CNS
SW-620 colon = tested on: SW-620 colon
MOLT-4 leukemia = tested on: MOLT-4 leukemia
UACC-257 melanoma = tested on: UACC-257 melanoma
PC-3 prostate = tested on: PC-3 prostate
RXF 393 renal = tested on: RXF 393 renal
NCI-H460 lung = tested on: NCI-H460 lung
M14 melanoma = tested on: M14 melanoma
OVCAR-3 ovarian = tested on: OVCAR-3 ovarian
SNB-75 CNS = tested on: SNB-75 CNS
NCI-H522 lung = tested on: NCI-H522 lung
SK-MEL-28 melanoma = tested on: SK-MEL-28 melanoma
BT-549 breast = tested on: BT-549 breast
TK-10 renal = tested on: TK-10 renal
NCI/ADR-RES ovarian = tested on: NCI/ADR-RES ovarian
SK-OV-3 ovarian = tested on: SK-OV-3 ovarian
MDA-MB-231 breast = tested on: MDA-MB-231 breast
SN12C renal = tested on: SN12C renal
SK-MEL-5 melanoma = tested on: SK-MEL-5 melanoma
IGROV1 ovarian = tested on: IGROV1 ovarian
EKVX NSCLC = tested on: EKVX NSCLC
SK-MEL-2 melanoma = tested on: SK-MEL-2 melanoma
DU-145 prostate = tested on: DU-145 prostate
RPMI-8226 leukemia = tested on: RPMI-8226 leukemia
HT29 colon = tested on: HT29 colon
UO-31 renal = tested on: UO-31 renal
SF-268 CNS = tested on: SF-268 CNS
SF-539 CNS = tested on: SF-539 CNS
CAKI-1 renal = tested on: CAKI-1 renal
MCF7 breast = tested on: MCF7 breast
K-562 leukemia = tested on: K-562 leukemia

COc1ccc(/C=C2\CCCC3=C2NC(N)=NC3c2ccc(OC)c(OC)c2)cc1OC (stereo unspecified) was tested. Which GI50 (HCT-116 colon) did it give?
The GI50 was 1.28 µM.

And the TGI (HCT-116 colon)?
Its TGI is 8.64 µM.

And the GI50 (SR leukemia)?
The GI50 was 0.915 µM.

What about the TGI (SR leukemia) of the same molecule?
Its TGI is 22.6 µM.

What about the GI50 (786-0 renal) of the same molecule?
The GI50 was 14.2 µM.

What about the TGI (786-0 renal) of the same molecule?
Its TGI is over 100 µM.

And the GI50 (COLO 205 colon)?
Its GI50 is 4.8 µM.

What about the TGI (COLO 205 colon) of the same molecule?
The TGI was over 100 µM.

What about the GI50 (A549 NSCLC) of the same molecule?
Its GI50 is 33.2 µM.

What about the TGI (A549 NSCLC) of the same molecule?
Its TGI is over 100 µM.

And the GI50 (HS 578T breast)?
The GI50 was 21.5 µM.

What about the TGI (HS 578T breast) of the same molecule?
Its TGI is over 100 µM.

What about the GI50 (LOX IMVI melanoma) of the same molecule?
Its GI50 is 4.63 µM.

And the TGI (LOX IMVI melanoma)?
Its TGI is 41.1 µM.

And the GI50 (HOP-62 NSCLC)?
The GI50 was 4.04 µM.

What about the TGI (HOP-62 NSCLC) of the same molecule?
Its TGI is over 66.9 µM.

And the GI50 (U251 CNS)?
Its GI50 is 2.53 µM.

What about the TGI (U251 CNS) of the same molecule?
The TGI was over 91.9 µM.

What about the GI50 (MDA-MB-435) of the same molecule?
The GI50 was 1.43 µM.

And the TGI (MDA-MB-435)?
Its TGI is over 100 µM.

What about the GI50 (UACC-62 melanoma) of the same molecule?
The GI50 was 10.9 µM.

And the TGI (UACC-62 melanoma)?
Its TGI is over 100 µM.

What about the GI50 (A498 renal) of the same molecule?
Its GI50 is 13.1 µM.

And the TGI (A498 renal)?
The TGI was over 82.6 µM.

What about the GI50 (OVCAR-8 ovarian) of the same molecule?
Its GI50 is 2.08 µM.

And the TGI (OVCAR-8 ovarian)?
The TGI was over 100 µM.

What about the GI50 (T-47D breast) of the same molecule?
The GI50 was 6.61 µM.

And the TGI (T-47D breast)?
Its TGI is over 60.5 µM.

And the GI50 (NCI-H23 lung)?
The GI50 was 7.33 µM.

And the TGI (NCI-H23 lung)?
The TGI was over 100 µM.

And the GI50 (OVCAR-5 ovarian)?
The GI50 was over 54.5 µM.

And the TGI (OVCAR-5 ovarian)?
The TGI was over 100 µM.

And the GI50 (HOP-92 NSCLC)?
The GI50 was 2.61 µM.

What about the TGI (HOP-92 NSCLC) of the same molecule?
The TGI was 17.1 µM.

What about the GI50 (ACHN renal) of the same molecule?
Its GI50 is 4.14 µM.

What about the TGI (ACHN renal) of the same molecule?
Its TGI is over 76.2 µM.

And the GI50 (NCI-H226 lung)?
Its GI50 is 3.02 µM.

What about the TGI (NCI-H226 lung) of the same molecule?
Its TGI is 20.2 µM.

What about the GI50 (MALME-3M melanoma) of the same molecule?
The GI50 was 23.7 µM.

What about the TGI (MALME-3M melanoma) of the same molecule?
Its TGI is over 70.2 µM.

And the GI50 (HCT-15 colon)?
Its GI50 is 9.68 µM.

And the TGI (HCT-15 colon)?
The TGI was over 100 µM.

What about the GI50 (HL-60(TB) leukemia) of the same molecule?
Its GI50 is 4.52 µM.

And the TGI (HL-60(TB) leukemia)?
The TGI was over 100 µM.

And the GI50 (SNB-19 CNS)?
Its GI50 is over 88.7 µM.

And the TGI (SNB-19 CNS)?
The TGI was over 100 µM.

And the GI50 (CCRF-CEM leukemia)?
The GI50 was 2.42 µM.

And the TGI (CCRF-CEM leukemia)?
Its TGI is over 100 µM.

What about the GI50 (OVCAR-4 ovarian) of the same molecule?
Its GI50 is 5.2 µM.

And the TGI (OVCAR-4 ovarian)?
Its TGI is over 100 µM.

And the GI50 (HCC-2998 colon)?
The GI50 was over 100 µM.

What about the TGI (HCC-2998 colon) of the same molecule?
Its TGI is over 100 µM.

And the GI50 (KM12 colon)?
The GI50 was 6.87 µM.

What about the TGI (KM12 colon) of the same molecule?
Its TGI is over 100 µM.

What about the GI50 (SF-295 CNS) of the same molecule?
The GI50 was 8.69 µM.

And the TGI (SF-295 CNS)?
The TGI was over 100 µM.

And the GI50 (SW-620 colon)?
Its GI50 is 4.58 µM.

And the TGI (SW-620 colon)?
The TGI was over 50.3 µM.

What about the GI50 (MOLT-4 leukemia) of the same molecule?
Its GI50 is 4.04 µM.

And the TGI (MOLT-4 leukemia)?
Its TGI is over 100 µM.

And the GI50 (UACC-257 melanoma)?
The GI50 was 5 µM.

What about the TGI (UACC-257 melanoma) of the same molecule?
The TGI was over 81.1 µM.

And the GI50 (PC-3 prostate)?
Its GI50 is 20.4 µM.

What about the TGI (PC-3 prostate) of the same molecule?
The TGI was over 100 µM.

And the GI50 (RXF 393 renal)?
The GI50 was 3.96 µM.

And the TGI (RXF 393 renal)?
Its TGI is 24.2 µM.

What about the GI50 (NCI-H460 lung) of the same molecule?
The GI50 was 25.2 µM.

And the TGI (NCI-H460 lung)?
Its TGI is over 100 µM.

And the GI50 (M14 melanoma)?
The GI50 was 6.25 µM.

What about the TGI (M14 melanoma) of the same molecule?
Its TGI is over 73.2 µM.

And the GI50 (OVCAR-3 ovarian)?
The GI50 was 5.41 µM.

What about the TGI (OVCAR-3 ovarian) of the same molecule?
Its TGI is over 100 µM.

What about the GI50 (SNB-75 CNS) of the same molecule?
Its GI50 is 2.41 µM.

And the TGI (SNB-75 CNS)?
Its TGI is 13.8 µM.

What about the GI50 (NCI-H522 lung) of the same molecule?
The GI50 was 7 µM.

What about the TGI (NCI-H522 lung) of the same molecule?
Its TGI is 36.8 µM.

What about the GI50 (SK-MEL-28 melanoma) of the same molecule?
Its GI50 is 21.6 µM.

And the TGI (SK-MEL-28 melanoma)?
Its TGI is over 100 µM.

And the GI50 (BT-549 breast)?
The GI50 was 3.62 µM.

What about the TGI (BT-549 breast) of the same molecule?
Its TGI is over 100 µM.

What about the GI50 (TK-10 renal) of the same molecule?
Its GI50 is 4.68 µM.

And the TGI (TK-10 renal)?
The TGI was 27.9 µM.

And the GI50 (NCI/ADR-RES ovarian)?
The GI50 was 1.93 µM.

What about the TGI (NCI/ADR-RES ovarian) of the same molecule?
Its TGI is over 100 µM.

And the GI50 (SK-OV-3 ovarian)?
The GI50 was 13.4 µM.

And the TGI (SK-OV-3 ovarian)?
Its TGI is over 100 µM.

What about the GI50 (MDA-MB-231 breast) of the same molecule?
The GI50 was 13.2 µM.

What about the TGI (MDA-MB-231 breast) of the same molecule?
Its TGI is over 100 µM.

What about the GI50 (SN12C renal) of the same molecule?
Its GI50 is over 39.6 µM.

What about the TGI (SN12C renal) of the same molecule?
Its TGI is over 100 µM.

What about the GI50 (SK-MEL-5 melanoma) of the same molecule?
Its GI50 is 3.48 µM.

What about the TGI (SK-MEL-5 melanoma) of the same molecule?
The TGI was over 100 µM.

What about the GI50 (IGROV1 ovarian) of the same molecule?
Its GI50 is 28.9 µM.

What about the TGI (IGROV1 ovarian) of the same molecule?
The TGI was over 100 µM.

What about the GI50 (EKVX NSCLC) of the same molecule?
The GI50 was 39.7 µM.

And the TGI (EKVX NSCLC)?
Its TGI is over 100 µM.

What about the GI50 (SK-MEL-2 melanoma) of the same molecule?
Its GI50 is 9.59 µM.

What about the TGI (SK-MEL-2 melanoma) of the same molecule?
The TGI was 81.9 µM.

What about the GI50 (DU-145 prostate) of the same molecule?
Its GI50 is 4.98 µM.

What about the TGI (DU-145 prostate) of the same molecule?
Its TGI is over 100 µM.

And the GI50 (RPMI-8226 leukemia)?
Its GI50 is 0.837 µM.

What about the TGI (RPMI-8226 leukemia) of the same molecule?
The TGI was 15.4 µM.

And the GI50 (HT29 colon)?
The GI50 was 7.75 µM.

And the TGI (HT29 colon)?
Its TGI is over 100 µM.

What about the GI50 (UO-31 renal) of the same molecule?
The GI50 was 11.8 µM.

And the TGI (UO-31 renal)?
Its TGI is over 57.1 µM.

What about the GI50 (SF-268 CNS) of the same molecule?
The GI50 was 6.9 µM.

What about the TGI (SF-268 CNS) of the same molecule?
The TGI was over 100 µM.

What about the GI50 (SF-539 CNS) of the same molecule?
The GI50 was 24.4 µM.

And the TGI (SF-539 CNS)?
The TGI was over 100 µM.

What about the GI50 (CAKI-1 renal) of the same molecule?
Its GI50 is 4.11 µM.

And the TGI (CAKI-1 renal)?
The TGI was over 100 µM.

And the GI50 (MCF7 breast)?
Its GI50 is 1.89 µM.

What about the TGI (MCF7 breast) of the same molecule?
Its TGI is over 100 µM.

What about the GI50 (K-562 leukemia) of the same molecule?
The GI50 was 6.17 µM.

And the TGI (K-562 leukemia)?
Its TGI is over 100 µM.
